US12318393B2, “Modulators of orphan nuclear receptors for NASH and other metabolic disorders” (Emory University, priority 2018, dated 2025)

Test system: high-fat-fed C57BL/6 mice
Experiment: High-fat-diet C57BL/6 mice, Compound 1 7.5 mg/kg with antagomiR-control or antagomiR-122
Type: in vivo
Experimental: C57BL/6 mice were fed a 50% high fat diet (HFD) for four weeks. The control cohort received three hydrodynamic tail vein injections of a 5 μg antagomiR-control and six i.p injections of saline over three weeks. A second cohort was hydrodynamic tail vein injected with 5 μg antagomiR-122 (the reverse complement that inhibits activity of miR-122) three times and i.p injections of saline six times over three weeks. A third cohort was injected i.p. with Compound 1 (7.5 mg/kg) twice a week plus antagomiR-control once a week over the course of 3 weeks. The final cohort was injected i.p. with Compound 1 (7.5 mg/kg) twice a week plus antagomiR-122 injections once a week over the course of 3 weeks.
High Fat diet fed mice. C57BL/6 male mice were fed for 8 weeks a 50% high fat diet (Envigo, DIETTD150235). All mice were kept in a pathogen-free facility, under a 12 h light/dark cycle. Research on mice was approved by the Hebrew University Institutional Animal Care and Ethics Committee.
Compound 1 and AntagomiR injections to mice. C57BL/6 male mice, 7-8 weeks old, or Sgp130FC, 9-month-old male mice, were injected i.p. with 7.5 mg/kg Compound 1 dissolved in saline and 3% DMSO. Saline was injected as control. Mice were hydrodynamic tail vain injected with antagomiR-122 or antagomiR-control (negative control) (5 μg/mouse in 1.5 ml saline). Mice were sacrificed according to the legend of the figure describing the experimental results and the livers, white adipose and skeletal muscle tissues were frozen in liquid nitrogen or in OCT embedded frozen blocks, for further RNA and histologic analysis. AntagomiRs were obtained from Sigma Aldrich, see Table 3.
Triglycerides and β-hydroxybutyrate quantification. To determine the liver and muscle lipid content, muscle and liver tissues (40-80 mg) were homogenized in 0.5 ml of chloroform: Tris solution (v/v, 1:1), the homogenate was transferred to 1 ml of chloroform: methanol solution (v/v, 2:1) centrifuged at 3000 rpm for 10 min. The organic phase was mixed with 5% Triton X100 in chloroform, dried and re-dissolved in water. After lipid extraction, TG concentration in samples was measured with Triglyceride Quantification Kit (BioVision), according to the manufactures instructions. β-hydroxybutyrate was determined utilizing commercial colorimetric kits (BioVision) directly from plasma samples.
In an effort to determine whether the mechanism of action of miR-122 and Compound 1 are aligned at the same pathway, an experiment was designed in which both molecules, together and each separately, were administered. In this study, mice were fed with a 50% HFD and therapy was initiated 4 weeks after the animals were already on a diet, to establish NASH prior to treatment. Therapies (antagomiRs given once a week, due to a prolonged half time, and RS twice weekly, due to a plasma t/2 of 2.7 hrs) were initiated after 4 weeks and given for 3 weeks. The mice were weighed from week 3 and therapies initiated a week later. […] The liver was further analyzed to assess lipotoxicity. […] A surrogate marker for energy expenditure, β-hydroxybutyrate, was also measured. A reduction in energy expenditure is associated with reduced miR-122, and energy expenditure increased upon treating with Compound 1.
Male C57BL/6J mice, 7 to 8 weeks old, were housed randomly in standard cages and were fed a HFD, or atherogenic diet (consisting 1% Chol and 0.5% cholic acid, see also Table 3). All mice had free access to water during the experimental period. During the feeding period body weight was monitored every 3 days. In the HFD experiment, after 4 or 6 weeks, the resultant obese mice were treated with antagomiR-122 ([…] once a week for 3 weeks), or i.p. injected with Compound 1 (RORα agonist, 7.5 mg/kg twice a week for 3 weeks; or 15 mg/kg 3 times a week for 3 weeks). The obese control (HFD) group was administered only saline with DMSO and antagomiR-control. […]

In the case of “antagomiR-122: small synthetic RNA, 2'-O-Me/phosphorothioate modified, cholesterol-linked, reverse complement that inhibits activity of miR-122 (antisense ACAAACACCAUUGUCACAC; 2'-O-methyl, phosphorothioate, cholesterol-linked, pattern not given here) [reference compound]”, the final body weight (5 μg antagomiR hydrodynamic tail vein injection three times over three weeks, HFD) is reported as 32 g and the “TG content in the muscle” value (50% HFD, treatment for 3 weeks) is reported as “increased”.
